Results reported in patent publication US20220298146A1, “HETEROCYCLIC DERIVATIVE AND USE THEREOF” (Transthera Sciences (Nanjing), Inc., priority 2019, published 2022).

Legend:
[1] = biological target: T1, Axl (h) (Homo sapiens, UniProt P30530); assay: Enzymatic activity assay, Axl (h) kinase, [γ-33P]-ATP; format: biochemical; conditions: 10 μM [γ-33P]-ATP, 40 min, room temperature; read-out: Inhibitory Activity on Ax1 (h), IC50
T1 construct: purchased
T1 sequence (P30530 26-894): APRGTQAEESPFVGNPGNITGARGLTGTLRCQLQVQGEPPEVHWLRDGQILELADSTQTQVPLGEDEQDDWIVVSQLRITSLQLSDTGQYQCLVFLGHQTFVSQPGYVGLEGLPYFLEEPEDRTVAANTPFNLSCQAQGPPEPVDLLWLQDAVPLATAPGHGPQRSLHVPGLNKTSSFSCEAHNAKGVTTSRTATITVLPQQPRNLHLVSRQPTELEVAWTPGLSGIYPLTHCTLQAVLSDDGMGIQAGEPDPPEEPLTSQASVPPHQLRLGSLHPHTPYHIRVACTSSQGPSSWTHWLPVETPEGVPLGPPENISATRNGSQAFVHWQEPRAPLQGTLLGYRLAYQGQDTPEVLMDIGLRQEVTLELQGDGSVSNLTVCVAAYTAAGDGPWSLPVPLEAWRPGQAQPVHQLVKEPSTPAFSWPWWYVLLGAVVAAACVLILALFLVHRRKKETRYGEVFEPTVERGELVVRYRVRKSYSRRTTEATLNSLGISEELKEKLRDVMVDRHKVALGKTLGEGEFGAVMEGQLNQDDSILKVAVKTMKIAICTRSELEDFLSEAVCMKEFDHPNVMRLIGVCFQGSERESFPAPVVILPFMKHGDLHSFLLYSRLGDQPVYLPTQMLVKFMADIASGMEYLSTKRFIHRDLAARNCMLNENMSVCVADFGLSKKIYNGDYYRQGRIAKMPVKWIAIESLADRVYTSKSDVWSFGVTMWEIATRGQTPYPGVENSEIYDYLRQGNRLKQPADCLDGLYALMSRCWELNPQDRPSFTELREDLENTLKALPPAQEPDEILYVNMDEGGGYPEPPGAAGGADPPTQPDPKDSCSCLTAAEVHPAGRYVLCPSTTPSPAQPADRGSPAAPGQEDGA
Protocol: (§1) Test samples: the compounds of the present invention, having structures and preparation methods shown above.
(1) Preparation of Compound Stock Solutions
(§2) Compounds were each dissolved in 100% DMSO to prepare stock solutions with a maximum concentration of 500 μM.
(2) Preparation of Compound Working Solutions
(§3) The compound stock solutions were diluted to final concentrations of 500 μM, 150 μM, 50 μM, 15 μM, 5 μM, 1.5 μM, 0.5 μM, 0.15 μM and 0.05 μM to prepare compound working solutions (50×).
(3) Preparation of different enzymatic reaction solutions
Axl (h) enzyme was dissolved in a mixture of 8 mM MOPS (pH 7.0), 0.2 mM EDTA and 250 μM KKSRGDYMTMQIG to prepare an enzyme solution with a final concentration of 1.7 nM. An Mg/ATP mixture of 10 mM magnesium acetate and 10 μM [γ-^33P]-ATP was used to activate the enzymatic reaction.
(§4) The compound working solutions were added to a 384-well plate, with final concentrations of 10000 nM, 3000 nM, 1000 nM, 300 nM, 100 nM, 30 nM, 10 nM, 3 nM and 1 nM, respectively, and then different enzymatic reaction solutions prepared according to the above conditions were added. The reaction solutions were incubated at room temperature for 40 min, and then 0.5% phosphoric acid solutions were added to terminate the reaction. 10 μL of the reaction solution was added dropwise to P30 filter paper which was washed 4 times with a 0.425% phosphoric acid solution and once with methanol and then placed in a scintillation counter for detection. Gray analysis was performed on the results with Image J software, and IC50 values were calculated with GraphPad 5.0 software.

[2] = biological target: T2, LCK (h) (Homo sapiens, UniProt P06239); assay: Enzymatic activity assay, LCK (h) kinase, [γ-33P]-ATP; format: biochemical; conditions: 10 μM [γ-33P]-ATP, 40 min, room temperature; read-out: Inhibitory Activity on LCK (h) kinase, IC50
T2 construct: purchased
T2 sequence (P06239 whole entry): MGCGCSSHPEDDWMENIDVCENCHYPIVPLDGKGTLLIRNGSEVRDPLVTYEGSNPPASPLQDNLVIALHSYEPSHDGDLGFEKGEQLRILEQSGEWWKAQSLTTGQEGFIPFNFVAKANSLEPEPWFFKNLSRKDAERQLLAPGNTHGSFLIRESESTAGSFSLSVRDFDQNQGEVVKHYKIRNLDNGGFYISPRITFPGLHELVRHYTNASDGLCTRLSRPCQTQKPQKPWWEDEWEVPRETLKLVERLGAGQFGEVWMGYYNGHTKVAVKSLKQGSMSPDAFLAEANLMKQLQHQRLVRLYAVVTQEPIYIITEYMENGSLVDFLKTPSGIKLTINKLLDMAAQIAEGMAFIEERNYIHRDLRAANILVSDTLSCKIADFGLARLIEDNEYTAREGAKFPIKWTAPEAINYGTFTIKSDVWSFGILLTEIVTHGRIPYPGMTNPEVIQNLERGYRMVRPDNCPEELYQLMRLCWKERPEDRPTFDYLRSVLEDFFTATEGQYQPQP
Protocol: as §1
Preparation of Compound Stock Solutions:
as §2
Preparation of Compound Working Solutions:
as §3
Preparation of Different Enzymatic Reaction Solutions:
LCK (h) enzyme was dissolved in a mixture of 50 mM Tris (pH 7.5), 0.1 mM EGTA, 0.1 mM Na3VO4 and 250 μM KVEKIGEGTYGVVYK to prepare an enzyme solution with a final concentration of 45 nM. An Mg/ATP mixture of 10 mM magnesium acetate and 10 μM [γ-^33P]-ATP was used to activate the enzymatic reaction.
as §4

How did the IC50 [1] turn out when `CC(C)n1cc(-c2ccc(F)cc2)c(=O)c(C(=O)Nc2ccc(Oc3ccnc(N)c3Cl)cn2)n1` [Compound 11, N-(5-((2-amino-3-chloropyridin-4-yl)oxy)pyridin-2-yl)-5-(4-fluorophenyl)-1-isopropyl-4-oxo-1,4-dihydropyridazine-3-carboxamide] was run?
The IC50 was 0.006 µM.

What about the IC50 [2] of the same compound?
Its IC50 is 0.02 µM.

What does the source list for `CC(C)n1cc(-c2ccc(F)cc2)c(=O)c(C(=O)Nc2ncc(Oc3ccnc(N)c3Cl)cn2)n1` [Compound 12, N-(5-((2-amino-3-chloropyridin-4-yl)oxy)pyrimidin-2-yl)-5-(4-fluorophenyl)-1-isopropyl-4-oxo-1,4-dihydropyridazine-3-carboxamide]?
IC50 [1]: 0.023 µM; IC50 [2]: 0.053 µM

What does the source list for `CC(C)n1cc(-c2ccc(F)cc2)c(=O)c(C(=O)Nc2ccc(Oc3ccnc(N)c3Cl)nc2)n1` [Compound 13, N-(6-((2-amino-3-chloropyridin-4-yl)oxy)pyridin-3-yl)-5-(4-fluorophenyl)-1-isopropyl-4-oxo-1,4-dihydropyridazine-3-carboxamide]?
IC50 [1]: 0.009 µM; IC50 [2]: 0.132 µM

For `Nc1nccc(Oc2ccc(NC(=O)c3nn(C4CC4)cc(-c4ccc(F)cc4)c3=O)nc2)c1Cl` [Compound 17, N-(5-((2-amino-3-chloropyridin-4-yl)oxy)pyridin-2-yl)-1-cyclopropyl-5-(4-fluorophenyl)-4-oxo-1,4-dihydropyridazine-3-carboxamide], which IC50 [1] is on record?
Its IC50 is 0.009 µM.

What about the IC50 [2] of the same compound?
Its IC50 is 0.024 µM.

`Nc1nccc(Oc2cnc(NC(=O)c3nn(C4CC4)cc(-c4ccc(F)cc4)c3=O)nc2)c1Cl` [Compound 18, N-(5-((2-amino-3-chloropyridin-4-yl)oxy)pyrimidin-2-yl)-5-(4-fluorophenyl)-1-cyclopropyl-4-oxo-1,4-dihydropyridazine-3-carboxamide] was tested. Which IC50 [1] did it give?
The IC50 was 0.008 µM.

How did the IC50 [1] turn out when `Nc1nccc(Oc2ccc(NC(=O)c3nn(C4CC4)cc(-c4ccc(F)cc4)c3=O)cn2)c1Cl` [Compound 19, N-(6-((2-amino-3-chloropyridin-4-yl)oxy)pyridin-3-yl)-1-cyclopropyl-5-(4-fluorophenyl)-4-oxo-1,4-dihydropyridazine-3-carboxamide] was run?
Its IC50 is 0.012 µM.

What about the IC50 [2] of the same compound?
Its IC50 is 0.104 µM.

For `Cn1cc(-c2ccc(F)cc2)c(=O)c(C(=O)Nc2ccc(Oc3ccnc(N)c3Cl)cn2)n1` [Compound 33, N-(5-((2-amino-3-chloropyridin-4-yl)oxy)pyridin-2-yl)-5-(4-fluorophenyl)-1-methyl-4-oxo-1,4-dihydropyridazine-3-carboxamide], which IC50 [1] is on record?
Its IC50 is 0.012 µM.

What about the IC50 [2] of the same compound?
Its IC50 is 0.026 µM.

With `C=CCn1cc(-c2ccc(F)cc2)c(=O)c(C(=O)Nc2ccc(Oc3ccnc(N)c3Cl)cn2)n1` [Compound 35, 1-allyl-N-(5-((2-amino-3-chloropyridin-4-yl)oxy)pyridin-2-yl)-5-(4-fluorophenyl)-4-oxo-1,4-dihydropyridazine-3-carboxamide] as the compound, how does the IC50 [1] read?
The IC50 was 0.004 µM.

What about the IC50 [2] of the same compound?
Its IC50 is 0.02 µM.

With `C=CCn1cc(-c2ccc(F)cc2)c(=O)c(C(=O)Nc2ncc(Oc3ccnc(N)c3Cl)cn2)n1` [Compound 37] as the compound, how does the IC50 [1] read?
Its IC50 is 0.009 µM.

Which results are given for `C=CCn1cc(-c2ccc(F)cc2)c(=O)c(C(=O)Nc2ccc(Oc3ccnc(N)c3Cl)nc2)n1` [Compound 39, 1-allyl-N-(6-((2-amino-3-chloropyridin-4-yl)oxy)pyridin-3-yl)-5-(4-fluorophenyl)-4-oxo-1,4-dihydropyridazine-3-carboxamide]?
IC50 [1]: 0.012 µM; IC50 [2]: 0.095 µM
